Literature values as cited in EP0851285A1, “Photothermographic recording material coatable from an aqueous medium” (priority 1996, dated 1998).

Conditions: salts B

Row | Compound | Solubility in water at 20°C (20°C) | Solubility in water (at 15°C (cell overrides title's 20°C))
1 | O=P(=O)[O-].[Ag+] [silver metaphosphate] | 0.32 g/100mL water | 
2 | [Ag+].[Ag+].[O]=[W](=[O])([O-])[O-] [silver tungstate] |  | 0.05 (at 15°C) g/100mL water
